Test: Toxicity in female Wistar rat assessed as ratio of kidney to body weight at 200 mg/kg, po after 28 days (reference value: 0.801 +/- 0.071)
Format: organism-based
Conditions: in vivo, 672 h, time 28 day

Cc1c(Oc2cccc(/C=C3\SC(=O)NC3=O)c2)ncnc1OC1CCN(C(=O)OC(C)(C)C)CC1
Ratio: 0.84

From ChEMBL document CHEMBL4732226, “Discovery of a potent G-protein-coupled receptor 119 agonist for the treatment of type 2 diabetes” (Bioorg Med Chem, 2021)
